Experimental data from paper PMC11239005, “Preclinical studies of RA475, a guanidine-substituted spirocyclic candidate RPN13/ADRM1 inhibitor for treatment of ovarian cancer” (PLOS ONE, 2024).
Where “and” joins values, the source holds several entries; their conditions need not be identical. Equal values may be shown once. Where a name gives a salt, the structure may show the parent alone.

How the values were obtained:
PEA1 cells = assay: MTT cytotoxicity assay, PEA1; format: cell-based, human; details: Homo sapiens, PEA1, 72 h
Experimental: (§1) All cell lines were obtained from the American Type Culture Collection (ATCC) and cultured in the specified medium supplemented with 10% fetal bovine serum, 100 IU/mL penicillin, and 100 μg/mL streptomycin at 37°C in a humidified 5% CO2/95% air incubator. Synthesis of new compounds is described in S1 File, and >95% purity of RA475, Up284 and its analogs were confirmed by NMR and MS. To assess drug cytotoxicity, cells were seeded at 2,500 cells/well (10,000 cells/well for MM lines) in 100 μL medium in 96-well plate as triplicates and after 24 h treated with compounds for a further 72 h. To assess cytotoxicity, the cells were incubated for 2 h at 37°C according to the manufacturer’s protocol with the Thiazolyl Blue Tetrazolium Bromide (20 μL/well of 5 mg/mL stock solution in water) (Sigma, M5655) and A570 measured using a Benchmark Plus microplate spectrophotometer (BIO-RAD). IC50 was estimated using Graphpad Prism 7 software.
(§2) Modifications of Up284 were sought to improve its drug-like properties without significant compromise of its activity in vivo, and several new compounds were synthesized (S1 File). Based on our prior studies of its pharmacophore, the central ring nitrogen was the most logical for addition of charged moieties, including RA475 and RA484. We also examined a change to either 3,4 spiro rings (RA477, RA479), or addition of 3-Fluoro substitutions (RA482) (S1 File). Our focus is developing iRPN13 to treat ovarian cancer resistant to standard of care drug regimens.
A wash-out experiment was performed to assess reversibility of the toxicity. PEA1 cells were treated with RA475 for 1 h before the medium was replaced with fresh culture medium, and the cells were then allowed to grow for another 71 hours (PEA1-WO). In parallel, PEA1 cells were incubated with RA475 continuously for 72 h. […] Possible reasons include slow uptake of RA475, reversible binding and neutralization by antioxidants in the medium.
To study the effect of RA475 in combination with approved therapeutics (DNA damaging agents or radiation) an MTT assay was performed using various concentrations of both drugs. Briefly PEA1 and OVCAR3 cells were each treated with drug combination (RA475 plus cisplatin) for 72 h in a checker board analysis and cell viability was measured using MTT assay. The data were analyzed and plotted using the Synergy Finder web application.

PEA2 = assay: MTT cytotoxicity assay, PEA2; format: cell-based; details: Homo sapiens; PEA2, 72 h, MTT; read-out: IC50
Experimental: as §1, §2

[1] = test system: spontaneous genetically-engineered peritoneal tumor (shp53, AKT, c-Myc); assay: Spontaneous GEMM of primary peritoneal/ovarian cancer; format: in vivo, mouse; details: C57BL/6; RA475 40 mg/kg IP every 3 days (12 doses); cisplatin 5 mg/Kg weekly (5 doses alone, 3 in combination)
Experimental: To induce IP tumor formation in immunocompetent mice, oncogenes (shp53, AKT, c-Myc), luciferase and the Sleeping Beauty (SB) transposase (10 μg/plasmid) were diluted in 500 μL of PBS and injected IP into female C57BL/6 mice. The mice were anesthetized by intramuscular injection of 50–100μL of a cocktail of ketamine 16 mg/mL / 3 mg/mL xylazine. The plasmid-injected mice were electroporated (EP) by the BTX ECM 830 square wave EP generator (BTX) (5 pulses, 200 V for 100 ms/pulse, 100 ms intervals between each pulse) with the caliper electrode (BTX) held across the waist of mouse. The mice were followed by IVIS imaging weekly for tracking tumor growth. The mice were sacrificed when the bioluminescence signal reached 10^9 photons/sec/cm^2/sr, or had enlarged abdomens due to the production of ascites, or had health conditions and/or criteria under which early euthanasia was required by the protocol. To track peritoneal tumor growth, bioluminescence imaging was performed by the IVIS Spectrum2000 (PerkinElmer) as the plasmid expressing SB transposase also produces luciferase. Briefly, the mice were injected IP with D-luciferin (GoldBio). After 10 min, the mice were anesthetized with isoflurane, and imaged by the IVIS Spectrum under the auto exposure mode. Bioluminescence in the peritoneal region was quantified as total photon counts/sec/cm^2/sr using Living Image 3.0 Software (Perkin Elmer).
GEMM better mimic the spontaneous development of cancers in an immune competent host than transplantable tumor lines. Female C57BL/6 mice were co-injected IP with sleeping beauty vector and plasmids expressing carrying shp53, AKT, c-Myc and firefly luciferase genes, followed by electroporation (EP) to deliver these plasmid DNA into the peritoneal cavity cells wherein they integrate randomly into their genome. After 7 days mice were imaged by IVIS200 for bioluminescence and randomized. Four groups (n = 8) were treated IP with vehicle or RA475 (40mg/kg, IP, every 3 days) or Cisplatin (5 mg/Kg, once a week) or the combination of RA475 (40mg/Kg, IP, every 3 days) plus Cisplatin (5 mg/Kg, once a week). […] While cisplatin reduced tumor growth, it led to severe toxicity including weight loss >20% that was not evident with RA475 alone.
Fig 7 Administration of RA475, cisplatin or the combination to mice bearing spontaneous, genetically-engineered model ovarian/peritoneal cancer. Female C57BL/6 mice were co-injected IP with sleeping beauty vector and plasmids expressing carrying shp53, AKT, c-Myc and firefly luciferase genes, followed by electroporation (EP) to deliver these plasmid DNA into the peritoneal cavity cells wherein they integrate randomly into their genome. After 7 days mice were imaged by Xenogen IVIS200 for bioluminescence and randomized. […]

[2] = LogD measurement, shake-flask octanol/PBS pH 7.4; format: physicochemical; details: octanol/PBS pH 7.4, single injections 1-3
Experimental: Incubations were carried out in Eppendorf-type polypropylene microtubes in triplicates. A 2.5 μL aliquot of 20 mM DMSO stock of a test compound was added into the previously mutually saturated mixture containing 500 μL of PBS (pH 7.4) and 500 μL of octanol. The solution was allowed to mix in a rotator for 1 hour at 30 rpm. Phase separation was assured by centrifugation for 2 min at 6000 rpm. The octanol phase was diluted 100-fold with 40% acetonitrile, and the aqueous phase (PBS buffer) was diluted 10-fold. The samples (both phases) were analyzed using an HPLC system coupled with a tandem mass spectrometer. […] Calculations of the partition ratios were carried out using the equation below. D=do.So/dp.Sp where:
So–peak area of the analyte in octanol phase
SP–peak area of the analyte in PBS buffer
do–dilution coefficient for octanol phase

MDA-MB-468 cells = assay: Surface Annexin V display by flow cytometry, MDA-MB-468; format: cell-based; details: MDA-MB-468, 12 h; RA475 1 or 2 μM, ixazomib 1 μM
Experimental: The percentage of cells initiating apoptosis was assessed with the annexin V FITC assay kit. The cells (2 × 10^5 cells/well) were treated with the described compounds at selected concentrations for 12 h or 16 h, as indicated. The cells were then collected, washed with PBS, resuspended in 100 μL of annexin V-FITC and 7-AAD dual-stain solution (3 μL Annexin V and 3 μL 7AAD, Catalog Number; 559763-BD bioscience), and incubated 20 min in the dark. The samples were then analyzed via flow cytometry using FlowJo V10 software. All experiments were repeated three times.
Supplementary file pone.0305710.s006.tif: S6 Fig RA475 induced apoptosis in a triple negative breast cancer cell line. […] (TIF)

[3] = test system: high molecular weight polyubiquitinated proteins in OVCAR3 cells; assay: Anti-ubiquitin immunoblot, OVCAR3; format: cell-based, human; details: Up284 0.5 μM, bortezomib 0.25 μM, ixazomib 0.25 μM, RA475 0.5 or 1 μM
Text: (§3) Cell lysate prepared in MPER (Pierce) from each sample was normalized by total protein concentration using the bicinchoninic acid assay and bovine serum albumin standards. Normalized samples were subjected to SDS-PAGE, transferred to PVDF membranes and analyzed by Western blot using antibodies specific to ubiquitin (P4D1, sc-8017, Santa Cruz), PARP (#9542, […]), actin (#66009, Protein Tech Group), Tubulin(#66031, Protein Tech Group), ADRM1/RPN13 (D9Z1U, #12019, Cell Signaling), USP14 (Cell Signal, # 8159), Annexin V (#559763, BD Pharmingen), and for secondary antibodies we utilized either horseradish peroxidase (HRP)-linked anti-mouse IgG or anti-rabbit IgG (GE Healthcare UK Ltd), HRP-linked streptavidin (N100, Thermo Fisher) at the recommended dilution (1:5000).
(§4) Accumulation of high molecular weight polyubiquitinated proteins (polyUb) is a classical phenomenon of proteasome function inhibition due to the stabilization of its substrate.
(§5) Fig 3 Impact of RA475 on proteasome function. […] Actin was used as loading control. […] C) 4T1 and HCC1806 cells stably expressing 4UbFL were treated with compounds at indicated doses for 4 h and imaged by IVIS200 after the addition of luciferin substrate (50 μL, 7mg/mL in PBS). D) Sub-confluent cultures of ES2 cells stably expressing 4UbFL were seeded at 10,000 cells/well in 96-well microtiter plates. At 18 h post transfection, cells were treated with compounds or vehicle (DMSO) at the doses indicated. After a 4 h incubation, the cells were lysed and the luciferase activity in each cell lysate was determined with a luciferase assay kit (Promega) according to the manufacturer’s instructions. Bioluminescence was measured by using a luminometer (Glomax Multidetection system, Promega) E) A patch was shaved of hair on one leg of CD-1 mice, and 10 μg 4UbFL plasmid in 20 μL of PBS was injected into the quadriceps femoralis muscle followed immediately by injection of the 2 Needle Array to 5 mm depth encompassing the injection site and square wave electroporation (ElectroSquarePorator 833, BTX-2 Needle array 5mm gap, Harvard apparatus) delivered as eight pulses at 106V for 20 ms with 200 ms intervals. One day post electroporation, mice were anesthetized with isoflurane, injected IP with luciferin (0.3 mg in 100 μL water) and optical imaging was performed to determine basal level luciferase expression. Images were acquired for 10 min with a Xenogen IVIS 200 (Caliper, Hopkinton, MA). Equally sized areas were analyzed using Living Image 2.20 software. Mice were imaged weekly during treatment. […]

[4] = cited from earlier work
[5] = test system: high molecular weight polyubiquitinated proteins in SKOV3 cells; assay: Anti-ubiquitin immunoblot, SKOV3; format: cell-based; details: Up284 and RA475 0.5 and 1 μM, RA190 1 μM
Text: as §3, §4
as §5, with “D) Sub-confluent cultures of ES2 cells stably expressing 4UbFL were seeded at 10,000 cells/well in 96-well microtiter plates. At 18 h post transfection, cells were treated with compounds or vehicle (DMSO) at the doses indicated.” left out, “One day post electroporation, mice were anesthetized with isoflurane, injected IP with luciferin (0.3 mg in 100 μL water) and optical imaging was performed to determine basal level luciferase expression. Images were acquired for 10 min with a Xenogen IVIS 200 (Caliper, Hopkinton, MA).” left out, “software.” for “software. Mice were imaged weekly during treatment.”

[6] = human and mouse microsomes; cited from earlier work

SMILES	IC50 (PEA1 cells) [nM]	IC50 (PEA2) [nM]	further results
N#Cc1ccc(/C=C2/C(=O)/C(=C/c3ccc(C#N)c(F)c3)C23CCN(C(=N)N)C3)cc1F [RA479, 1,3-bis((E)-4-cyano-3-fluorobenzylidene)-2-oxo-6-azaspiro[3.4]octane-6-carboximidamide dihydrochloride]	350	320	
N.N.[Cl][Pt][Cl] [cisplatin, reference compound]			tumor burden by bioluminescence [1]: significantly better delayed, but did not reduce, tumor burden
COC(=O)Nc1nc2ccc(C(=O)c3ccccc3)cc2[nH]1 [Mebendazole]			D [2]: 8.61E+02 and 8.97E+02 and 8.85E+02
N#Cc1ccc(/C=C2/C(=O)/C(=C/c3ccc(C#N)cc3)C23CCN(C(=N)N2CCOCC2)CC3)cc1 [RA484, 4,4'-((1E,1'E)-(7-(imino(morpholino)methyl)-2-oxo-7-azaspiro[3.5]nonane-1,3-diylidene)bis(methaneylylidene))dibenzonitrile]	479	522	
N#Cc1ccc(/C=C2/C(=O)/C(=C/c3ccc(C#N)c(F)c3)C23CCN(C(=N)N)CC3)cc1F [RA482, 1,3-bis((E)-4-cyano-3-fluorobenzylidene)-2-oxo-7-azaspiro[3.5]nonane-7-carboximidamide dihydrochloride]	396	410	
N#Cc1ccc(/C=C2/C(=O)/C(=C/c3ccc(C#N)cc3)C23CCN(C(=N)N)C3)cc1 [RA477, 1,3-bis((E)-4-cyanobenzylidene)-2-oxo-6-azaspiro[3.4]octane-6-carboximidamide dihydrochloride]	331	312	
CC(C)C[C@H](NC(=O)CNC(=O)c1cc(Cl)ccc1Cl)B(O)O [ixazomib]			apoptosis by surface Annexin V display (MDA-MB-468 cells): initiated apoptosis; forms of polyUb induced [3]: only induced the smaller poly Ub forms, typically <250kDa; access to the brain [4]: mostly excluded from the brain
Cl.N[C@@H](Cc1ccccc1)C(=O)N1C/C(=C/c2ccc(Cl)c(Cl)c2)C(=O)/C(=C\c2ccc(Cl)c(Cl)c2)C1 [RA190]			accumulation of high molecular weight polyubiquitinated proteins [5]: robust accumulation of polyUb; breakdown in microsomes compared with RA475 [6]: more rapidly broken down
CC(C)C[C@H](NC(=O)[C@H](CCc1ccccc1)NC(=O)CN1CCOCC1)C(=O)N[C@@H](Cc1ccccc1)C(=O)N[C@@H](CC(C)C)C(=O)[C@@]1(C)CO1 [Carfilzomib, carfilzomib]			access to the brain [4]: mostly excluded from the brain
